What was measured:
Assay type in all cases: cell-based
[1] = tested on: DU145; assay: MTT assay, DU145; conditions: Homo sapiens, DU-145, 72 h, read-out: IC50 ± SD Prostate DU145
Method: The concentration of the tested compounds that produced a 50% inhibition of cell growth (IC50) was determined.
A panel of cancer cell lines, including cervical (OV2008 and HeLa), breast (MDA-MB-231), lung (A549) and colon (LOVO), prostate (DU145), human embryonic kidney cells (HEK293), human colon fibroblast cells (CRL1459), and Chinese hamster ovary cells (CHO), were grown as adherent monolayers in flasks containing Dulbecco’s modified Eagle medium (DMEM), supplemented with 10% fetal bovine serum (FBS) and 1% penicillin and streptomycin, in a humidified incubator with 5% CO2 at 37 °C.
The cells were seeded evenly (180 μL/well) in 96-well plates, at a density of 3000–5000 cells/well and incubated with serial dilutions of the compounds ranging from 0.1 to 100 μM. The MTT dye (4 mg/ml) was added after 72 h of incubation and incubated with the cells for an additional 4 h at 37 °C, allowing the viable cells to biotransform the yellow-colored MTT into dark-blue formazan crystals. Following incubation, the medium was aspirated, and the formazan crystals were dissolved by adding 100 μL of DMSO to each well. Cytation™ 5 and Cytation™ 7 multi-mode detector (Bio Tek Instruments, Winooski, VT, USA) was used to determine the absorbance readings at a wavelength of 570 nm. The IC50 values were determined based on 3 separate experiments, with each experiment carried out in triplicate.

[2] = tested on: HeLa; assay: MTT assay, HeLa; conditions: Homo sapiens, HeLa, 72 h, read-out: IC50 ± SD Cervical HeLa
Method: Table S1. The antiproliferative efficacy of the DML1-DML12 compounds on the proliferation of cervical cancer cell line.
Figure S1. The efficacy of DML6 in HeLa cancer cells. The cell-viability curve produced by HeLa cells treated with
vehicle (0 μM), 5 or 10 μM of DML6 after 72 h of incubation. Cell survival was determined using the MTT assay. The
IC50 values are represented as the means ± SD of three independent experiments performed in triplicate. […]

[3] = tested on: OV2008 cells; assay: Cell cycle analysis, flow cytometry with propidium iodide; conditions: for percentage of cells in the G2 phase / percentage of cells in the G1 phase: 24 h; for percentage of cells in the G2 phase: vehicle 4.18%; for percentage of cells in the G1 phase: vehicle 85.99%
Method: Cell cycle analysis was conducted using flow cytometry cell cycle analysis with propidium iodide (PI) as previously described. OV2008 cells were plated into 6-well plates at 2.5 × 10^5 cells/well. The cells were incubated with the vehicle, 5 or 20 μM of DML6 for 24 h. The next day, the cells were trypsinized with 0.25% trypsin, 2.21 mM EDTA, 1X, washed, counted, and resuspended in 1ml of ice-cold PBS. The cells were then stained with 200 µL (50 µg/ml stock solution propidium iodide (PI) dye and incubated for at least 15 min. The distribution of the cells in each phase of the cell cycle after incubation with the vehicle or DML6 was determined using A BD FACSCanto™ flow cytometer (BD Biosciences, Becton-Dickinson, San Jose, CA, USA) and analyzed using FCS Express 7 plus De Novo software (Glendale, CA, USA).

[4] = tested on: OV2008 cells; assay: Nuclear staining with Hoechst dye
Method: Nuclear fragmentation and chromatin condensation were detected using the Hoechst 33258 DNA dye as previously described. OV2008 cells were seeded at a density of 250,000 cells/mL in 6-well plates and incubated overnight at 37 °C. The next day, the cells were incubated with the vehicle (DMEM media with 10% FBS and 1% penicillin and streptomycin), 5 or 20 μM of DML6 and further incubated overnight at 37 °C. The cells were fixed and stained with the Hoechst 33258 DNA dye for at least 30 min. The stained nucleus fluorescence was detected using an EVOS digital microscope at wavelengths of 460–490 nm.

[5] = tested on: OV2008 cells; assay: Apoptosis and mitochondrial membrane potential (MitoTracker Red / Alexa Fluor 488 annexin V); conditions: 24 h; for percentage of apoptotic cells in quadrant II (Q2): vehicle 8.41%; for percentage of live cells in quadrant I (Q1): vehicle 90.86%
Method: MitoTracker® Red and Alexa Fluor 488 annexin V kits for flow cytometry (Molecular Probes Inc., Eugene, OR, USA) were used to determine the mitochondrial membrane potential and apoptosis, respectively, in OV2008 cells, as previously described. OV2008 cells were seeded in 6-well plates and incubated with the vehicle, 5 or 20 μM of DML6 for 24 h. The following day, the cells were trypsinized using 0.25% trypsin, 2.21 mM EDTA, 1×, counted and 4 μL of 10 μM MitoTracker® Red working solution was added to 1 mL of the harvested cells. The cells were incubated at 37 °C with 5% CO2 for 30 min. The cells were washed with ice-cold phosphate-buffered saline (PBS), followed by cell resuspension in 100 μL of the annexin binding buffer. The cell suspensions were then incubated with 5 μL of Alexa Fluor 488 annexin V for 15 min, followed by adding 400 μL of the annexin-binding buffer. Finally, flow cytometry was used to detect the fluorescence of stained cells at the following excitation/emission maximum: Alexa Fluor® 488 annexin V: 499/521 nm; MitoTracker® Red: 579/599 nm, using a flow cytometer BD FACSCanto™ (BD Biosciences, Becton-Dickinson, San Jose, CA, USA) and analyzed using FCS Express 7 plus De Novo software (Glendale, CA, USA).

[6] = tested on: caspase-3; assay: Western blot, cleaved caspase-3; conditions: OV2008, 5 or 20 µM, vs vehicle
Method: The OV2008 cells were lysed to obtain total cellular protein fractions using Mammalian Protein Extraction Reagent (Catalog # 78501, M-PER™, Thermo Fisher Scientific, Waltham, MA, USA). The cells were seeded in […] at a density of 1 × 10^6 and incubated with 5 or 20 µM of DML6 or 1 µM of doxorubicin (Catalog # T1-2-, TargetMol, Boston, MA, USA) (a positive control) for 24 h. The following day, the cells were washed with ice-cold PBS, scraped using a cell scrapper and collected in Eppendorf tubes. The tubes were centrifuged at 1500 RPM at 4 °C for 5 min. The solution was discarded and replaced with 70 µL of the cell lysis buffer (M-PER reagent, 100 mM Sodium Orthovanadate (NaOV) at a final concentration of 2.5 mM) and a 100X protease inhibitor cocktail (Catalog # P8340, Sigma-Aldrich, St. Louis, MO, USA, final concentration of 1X, containing of aprotinin, bestatin, E-64, leupeptin and pepstatin). Thirty minutes later, the resulting solution was centrifuged at 10,000 RPM at 4 °C for 5 min and the supernatant was collected. The protein concentration of the cell extracts was determined using the bicinchoninic acid (BCA) (Catalog # 786-570, G-Biosciences, Saint Louis, MO, USA) quantification assay. […] Finally, the amount of protein in each blot was quantified using the Image J software (NIH, Bethesda, MD, USA). All data were calculated as a ratio to β-actin.

## CN(C)c1ccc(/C=C/C(=O)c2ccc(Cl)cc2Cl)cc1 [DML6, (E)-1-[2,4-dichlorophenyl]-3-(4-(dimethylamino)phenyl)prop-2-en-1-one]
[1]
  IC50: 96.9 ± 4.4 µM
[2]
  IC50: 9.08 ± 0.69 µM
[3]; 5 μM
  percentage of cells in the G2 phase: 42.56%
  percentage of cells in the G1 phase: 16.01%
[3]; 20 μM
  percentage of cells in the G2 phase: 59.96%
  percentage of cells in the G1 phase: 27.84%
[3]; 5 or 10 µM, vs vehicle
  change of percentage of cells in the sub G1 phase: neither 5 or 10 µM of DML6 significantly altered
[4]; 5 μM, 24 h
  nuclear morphology: increased the number of cells with condensed, fragmented nuclei
[4]; 20 µM
  nuclear morphology: decondensed, multiple micronuclei and some single, highly condensed nuclei
[4]; 5 and 20 μM, vs vehicle
  percentage of apoptotic nuclei: significantly higher
[5]; 5 µM
  percentage of apoptotic cells in quadrant II (Q2): 41.38%
  percentage of live cells in quadrant I (Q1): 53.39%
[5]; 20 µM
  percentage of apoptotic cells in quadrant II (Q2): 73.67%
  percentage of live cells in quadrant I (Q1): 22.37%
[6]
  cleavage (activation) of caspase-3: significantly increased the cleavage

Reference: publication PMC8306139, “A Novel Dialkylamino-Functionalized Chalcone, DML6, Inhibits Cervical Cancer Cell Proliferation, In Vitro, via Induction of Oxidative Stress, Intrinsic Apoptosis and Mitotic Catastrophe” (Molecules, 2021)
